In US20210386367A1, “DEVICES AND SYSTEMS FOR GASTROINTESTINAL MICROBIOME DETECTION AND MANIPULATION” (Progenity, Inc., priority 2018, published 2021):
Values after ≈ are worked out from the molar mass of the structure shown. “Also recorded” adds a separate entry of the source. Read-outs that look alike come from different tables or passages of the source.

How the values were obtained:
Klebsiella spp. = experiment: Broth microdilution MIC, 50 clinical isolates (20 K. oxytoca, 30 K. pneumoniae); format: cell-based
How it was run: (§1)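 CLSI broth microdilution in cation-adjusted Mueller Hinton broth, with 3% lysed horse blood added for streptococci, which were incubated with CO2.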

Pseudomonas aeruginosa = experiment: Broth microdilution MIC, 50 clinical isolates; format: cell-based
How it was run: as §1

Proteus mirabilis = experiment: Broth microdilution MIC, 50 clinical isolates; format: cell-based
How it was run: as §1

Enterobacter aerogenes = experiment: Broth microdilution MIC, 50 clinical isolates; format: cell-based
How it was run: as §1

E. coli ATCC 25922 = experiment: Time-kill assay; format: cell-based, Escherichia coli; conditions: 2×, 4×, 8× MIC; 2, 6, 24 hr
S. pneumoniae ATCC 49619 = conditions: cited from earlier work
Bacteroides fragilis = experiment: Agar dilution MIC, 30 clinical isolates; format: cell-based
[1] = 30 Bacteroides fragilis clinical isolates

C[C@@H](O)[C@H]1C(=O)N2C(C(=O)O)=C(S[C@@H]3CN[C@H](C(=O)N(C)C)C3)[C@H](C)[C@H]12 [meropenem]
% R (Klebsiella spp.): Sixteen
% S (Klebsiella spp.): 84%
Mode (Klebsiella spp.): 0.015 µg/mL
relative activity among drugs tested (Klebsiella spp.): most active drug evaluated; also recorded: MIC50 value for meropenem was the lowest
Cumulative percentage of isolates at MIC (Klebsiella spp.; 0.015 μg/mL): 58.0%
Number of test isolates at MIC (Klebsiella spp.; 0.015 μg/mL): 27
Cumulative percentage of isolates at MIC (Klebsiella spp.; 0.03 μg/mL): 80.0%
Number of test isolates at MIC (Klebsiella spp.; 0.03 μg/mL): 11
Cumulative percentage of isolates at MIC (Klebsiella spp.; 0.06 μg/mL): 82.0%
Number of test isolates at MIC (Klebsiella spp.; 0.06 μg/mL): 1
Cumulative percentage of isolates at MIC (Klebsiella spp.; 0.5 μg/mL): 84.0%
Number of test isolates at MIC (Klebsiella spp.; 0.5 μg/mL): 1
Cumulative percentage of isolates at MIC (Klebsiella spp.; 8 μg/mL): 88.0%
Number of test isolates at MIC (Klebsiella spp.; 8 μg/mL): 2
Cumulative percentage of isolates at MIC (Klebsiella spp.; >8 μg/mL): 100.0%
Number of test isolates at MIC (Klebsiella spp.; >8 μg/mL): 6
MIC50 (Klebsiella spp.; Klebsiella, read-out: MIC50): 0.015 µg/mL (≈ 0.0391 µM)
MIC90 (Klebsiella spp.; Klebsiella, read-out: MIC90): > 8 µg/mL
% R (Klebsiella spp.; listed as MEM): 16%
MIC90 (Klebsiella spp.; listed as MEM): >8 µg/mL
Cumulative percentage of isolates at MIC (Klebsiella spp.; ≤0.008 μg/mL): 4.0%
Number of test isolates at MIC (Klebsiella spp.; ≤0.008 μg/mL): 2
% I (Pseudomonas aeruginosa): 10%
% R (Pseudomonas aeruginosa): Eighteen
% S (Pseudomonas aeruginosa): 72%
Mode (Pseudomonas aeruginosa): 0.25 µg/mL
relative activity among drugs tested (Pseudomonas aeruginosa): most active drug evaluated; also recorded: most active agent
Cumulative percentage of isolates inhibited at MIC (Pseudomonas aeruginosa; 0.03 μg/mL): 2.0%
Number of test isolates at MIC (Pseudomonas aeruginosa; 0.03 μg/mL): 1
Cumulative percentage of isolates inhibited at MIC (Pseudomonas aeruginosa; 0.06 μg/mL): 6.0%
Number of test isolates at MIC (Pseudomonas aeruginosa; 0.06 μg/mL): 2
Cumulative percentage of isolates inhibited at MIC (Pseudomonas aeruginosa; 0.5 μg/mL): 56.0%
Number of test isolates at MIC (Pseudomonas aeruginosa; 0.5 μg/mL): 5
Cumulative percentage of isolates inhibited at MIC (Pseudomonas aeruginosa; 1 μg/mL): 66.0%
Number of test isolates at MIC (Pseudomonas aeruginosa; 1 μg/mL): 5
Cumulative percentage of isolates inhibited at MIC (Pseudomonas aeruginosa; 2 μg/mL): 72.0%
Number of test isolates at MIC (Pseudomonas aeruginosa; 2 μg/mL): 3
Cumulative percentage of isolates inhibited at MIC (Pseudomonas aeruginosa; 4 μg/mL): 84.0%
Number of test isolates at MIC (Pseudomonas aeruginosa; 4 μg/mL): 6
Cumulative percentage of isolates inhibited at MIC (Pseudomonas aeruginosa; 8 μg/mL): 92.0%
Number of test isolates at MIC (Pseudomonas aeruginosa; 8 μg/mL): 4
Cumulative percentage of isolates inhibited at MIC (Pseudomonas aeruginosa; >8 μg/mL): 100.0%
Number of test isolates at MIC (Pseudomonas aeruginosa; >8 μg/mL): 4
MIC50 (Pseudomonas aeruginosa; Pseudomonas aeruginosa, read-out: MIC50): 0.5 µg/mL (≈ 1.3 µM)
MIC90 (Pseudomonas aeruginosa; Pseudomonas aeruginosa, read-out: MIC90): 8 µg/mL (≈ 20.9 µM)
% I (Pseudomonas aeruginosa; listed as MEM): 10%
% R (Pseudomonas aeruginosa; listed as MEM): 18%
% S (Proteus mirabilis): 98%
MIC range (Proteus mirabilis): ≤0.008 to 2 µg/mL
Mode (Proteus mirabilis): 0.06 µg/mL
Cumulative percentage of isolates inhibited at MIC (Proteus mirabilis; 0.03 μg/mL): 38.0%
Number of test isolates at MIC (Proteus mirabilis; 0.03 μg/mL): 18
Cumulative percentage of isolates inhibited at MIC (Proteus mirabilis; 0.06 μg/mL): 82.0%
Number of test isolates at MIC (Proteus mirabilis; 0.06 μg/mL): 2
Cumulative percentage of isolates inhibited at MIC (Proteus mirabilis; 2 μg/mL): 100.0%
Number of test isolates at MIC (Proteus mirabilis; 2 μg/mL): 1
MIC50 (Proteus mirabilis; Proteus mirabilis, read-out: MIC50): 0.06 µg/mL (≈ 0.156 µM)
MIC90 (Proteus mirabilis; Proteus mirabilis, read-out: MIC90): 0.12 µg/mL (≈ 0.313 µM)
% I (Proteus mirabilis; listed as MEM): 2% ^
Cumulative percentage of isolates inhibited at MIC (Proteus mirabilis; ≤0.008 μg/mL): 2.0%
Number of test isolates at MIC (Proteus mirabilis; ≤0.008 μg/mL): 1
% I (Enterobacter aerogenes): 2%
% S (Enterobacter aerogenes): Ninety-eight
MIC range (Enterobacter aerogenes): 0.015 to 2 µg/mL
Mode (Enterobacter aerogenes): 0.03 µg/mL
relative activity among drugs tested (Enterobacter aerogenes): most active drug evaluated; also recorded: most active agent
Cumulative percentage of isolates inhibited at MIC (Enterobacter aerogenes; 0.015 μg/mL): 36.0%
Number of test isolates at MIC (Enterobacter aerogenes; 0.015 μg/mL): 18
Cumulative percentage of isolates inhibited at MIC (Enterobacter aerogenes; 0.03 μg/mL): 80.0%
Number of test isolates at MIC (Enterobacter aerogenes; 0.03 μg/mL): 22
Cumulative percentage of isolates inhibited at MIC (Enterobacter aerogenes; 0.06 μg/mL): 94.0%
Number of test isolates at MIC (Enterobacter aerogenes; 0.06 μg/mL): 7
Cumulative percentage of isolates inhibited at MIC (Enterobacter aerogenes; 1 μg/mL): 98.0%
Number of test isolates at MIC (Enterobacter aerogenes; 1 μg/mL): 1
Cumulative percentage of isolates inhibited at MIC (Enterobacter aerogenes; 2 μg/mL): 100.0%
Number of test isolates at MIC (Enterobacter aerogenes; 2 μg/mL): 1
MIC50 (Enterobacter aerogenes; Klebsiella aerogenes, read-out: MIC50): 0.03 µg/mL (≈ 0.0782 µM)
MIC90 (Enterobacter aerogenes; Klebsiella aerogenes, read-out: MIC90): 0.06 µg/mL (≈ 0.156 µM)
Cumulative percentage of isolates inhibited at MIC (Enterobacter aerogenes; […]): 96.0%
Number of test isolates at MIC (Enterobacter aerogenes; […]): 1
% I (Enterobacter aerogenes; listed as MEM): 2%
% S (Enterobacter aerogenes; listed as MEM): 98%
time-kill kinetics outcome (bactericidal = ≥3 log reduction in CFU per mL) (E. coli ATCC 25922): rapid killing and bactericidal activity at the two higher concentrations at 24 hr
CLSI QC range (MIC) (S. pneumoniae ATCC 49619): (0.03-0.25)^1 μg/mL
isolates with intermediate resistance (Bacteroides fragilis): Twenty
relative activity among drugs tested (Bacteroides fragilis): meropenem and rifaximin had similar activity
% I (Bacteroides fragilis; [1]): 20%
% S (Bacteroides fragilis; [1]): 80%
MIC50 (Bacteroides fragilis; [1]): 0.25 µg/mL (≈ 0.652 µM)
MIC90 (Bacteroides fragilis; [1]): >8 µg/mL
MIC50 (Bacteroides fragilis; Bacteroides fragilis, read-out: MIC50): 0.25 µg/mL (≈ 0.652 µM)
MIC90 (Bacteroides fragilis; Bacteroides fragilis, read-out: MIC90): > 8 µg/mL
Mode (Bacteroides fragilis; modal MIC, 30 Bacteroides fragilis clinical isolates): 0.25 µg/mL
